PMC3951249 (Bioorganic & medicinal chemistry letters, 2014)

Assays:
[1] = target: T1, GlyT1 (Homo sapiens, UniProt P48067); test: GlyT1 inhibition, [14C]-glycine uptake assay; format: cell-based; settings: for loss in GlyT1 potency relative to piperidine analog: 4a vs 2, 4b vs 1
T1 sequence (P48067 1-706): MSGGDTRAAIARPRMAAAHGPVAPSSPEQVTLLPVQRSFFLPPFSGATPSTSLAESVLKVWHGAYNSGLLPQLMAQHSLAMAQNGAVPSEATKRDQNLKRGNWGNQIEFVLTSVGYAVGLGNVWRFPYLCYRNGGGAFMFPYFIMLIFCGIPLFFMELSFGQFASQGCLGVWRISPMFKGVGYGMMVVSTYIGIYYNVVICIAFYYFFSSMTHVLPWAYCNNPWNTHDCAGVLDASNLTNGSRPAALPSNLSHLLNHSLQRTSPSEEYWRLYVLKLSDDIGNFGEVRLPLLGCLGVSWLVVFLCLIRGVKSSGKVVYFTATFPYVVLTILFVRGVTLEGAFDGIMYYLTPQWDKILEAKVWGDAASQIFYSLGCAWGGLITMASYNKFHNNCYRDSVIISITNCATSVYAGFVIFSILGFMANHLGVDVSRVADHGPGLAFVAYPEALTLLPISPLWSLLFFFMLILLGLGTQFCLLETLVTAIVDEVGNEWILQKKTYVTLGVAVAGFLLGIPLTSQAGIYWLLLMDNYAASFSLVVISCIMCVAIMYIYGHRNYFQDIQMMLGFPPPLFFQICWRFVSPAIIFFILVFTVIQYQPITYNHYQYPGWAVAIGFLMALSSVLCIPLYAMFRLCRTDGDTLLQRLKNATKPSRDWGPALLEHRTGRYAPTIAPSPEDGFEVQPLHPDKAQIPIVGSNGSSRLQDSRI

[2] = data reported for Merck's 2; cited from earlier work
[3] = system: prepulse inhibition (PPI) of the rodent acoustic startle response; test: prepulse inhibition; format: in vivo; settings: rat, 30 mg/kg p.o.
[4] = target: T1, GlyT1; settings: 30 mg/kg oral; cited from earlier work
[5] = target: T1, GlyT1; settings: ref 13-15 (1 and 2), ref 5-8 (NFPS); cited from earlier work
[6] = data reported for Merck's 2; cited from earlier work; remark: listed apart in the source
[7] = target: T2, GlyT2 (Homo sapiens, UniProt Q9Y345); test: GlyT2 inhibition; format: cell-based
T2 sequence (Q9Y345 1-797): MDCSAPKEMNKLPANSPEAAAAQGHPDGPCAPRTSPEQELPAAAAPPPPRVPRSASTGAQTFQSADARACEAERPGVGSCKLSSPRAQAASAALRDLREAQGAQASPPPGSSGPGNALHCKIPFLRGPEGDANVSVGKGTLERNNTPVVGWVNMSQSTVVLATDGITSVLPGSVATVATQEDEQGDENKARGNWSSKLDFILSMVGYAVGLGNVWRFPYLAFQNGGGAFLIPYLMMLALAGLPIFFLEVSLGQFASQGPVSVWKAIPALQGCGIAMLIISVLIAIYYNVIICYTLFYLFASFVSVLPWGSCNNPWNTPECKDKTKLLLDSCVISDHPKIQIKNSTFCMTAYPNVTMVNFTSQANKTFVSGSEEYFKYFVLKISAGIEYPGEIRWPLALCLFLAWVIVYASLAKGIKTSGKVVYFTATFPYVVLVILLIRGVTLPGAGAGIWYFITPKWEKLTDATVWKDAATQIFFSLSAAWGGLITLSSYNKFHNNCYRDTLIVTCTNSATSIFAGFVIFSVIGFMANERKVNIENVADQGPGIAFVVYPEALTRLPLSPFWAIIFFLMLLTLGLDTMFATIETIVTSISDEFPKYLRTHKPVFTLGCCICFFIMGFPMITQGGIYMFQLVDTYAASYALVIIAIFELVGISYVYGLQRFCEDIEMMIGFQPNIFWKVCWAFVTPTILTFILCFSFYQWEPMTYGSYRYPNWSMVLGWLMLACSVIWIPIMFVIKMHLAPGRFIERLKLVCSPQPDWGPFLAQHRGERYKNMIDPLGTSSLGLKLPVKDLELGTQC

[8] = target: CYP3A4 (Homo sapiens, UniProt P08684); test: CYP inhibition; format: in vitro ADME
Chain of CYP3A4 (P08684 whole entry): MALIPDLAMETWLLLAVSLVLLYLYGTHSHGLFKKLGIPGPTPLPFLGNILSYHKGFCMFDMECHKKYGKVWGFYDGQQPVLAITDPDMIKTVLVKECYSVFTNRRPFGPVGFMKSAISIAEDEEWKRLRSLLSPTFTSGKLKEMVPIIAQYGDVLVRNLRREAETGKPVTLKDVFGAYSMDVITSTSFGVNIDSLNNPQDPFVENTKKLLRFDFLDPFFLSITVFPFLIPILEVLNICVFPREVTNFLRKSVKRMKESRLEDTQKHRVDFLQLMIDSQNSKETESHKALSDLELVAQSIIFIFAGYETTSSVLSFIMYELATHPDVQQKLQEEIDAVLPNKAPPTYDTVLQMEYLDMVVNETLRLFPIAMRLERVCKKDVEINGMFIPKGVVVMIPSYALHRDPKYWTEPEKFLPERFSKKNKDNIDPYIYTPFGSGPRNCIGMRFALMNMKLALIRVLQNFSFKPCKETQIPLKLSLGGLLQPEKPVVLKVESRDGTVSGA

[9] = system: 68 GPCRs, ion channels and transporters; test: Eurofin Lead Profiling panel of radioligand binding assays; settings: @10 μM, 68 targets
[10] = stability in rat plasma; format: in vitro ADME; settings: 4 hours at 37 °C
[11] = in vitro intrinsic clearance, rat; format: in vitro ADME; settings: from in vitro intrinsic clearance
[12] = in vitro intrinsic clearance, human; format: in vitro ADME; settings: from in vitro intrinsic clearance
[13] = fraction unbound in human plasma; format: in vitro ADME; settings: fu (hum)
[14] = brain tissue distribution study; format: in vivo; settings: rat
[15] = system: CYP (isoforms not named); test: CYP profile; format: in vitro ADME

CCCS(=O)(=O)N1C[C@@H]2[C@H](C1)[C@@]2(CNC(=O)c1ccc(Cl)cc1Cl)CC1CC1 [Compound 4b]
loss in GlyT1 potency relative to piperidine analog [1]: ~ 150 fold

CCS(=O)(=O)N1CCC(CNC(=O)c2ccc(Cl)cc2Cl)(CC2CC2)CC1 [Compound 2]
clearance in dog [2]: low clearance
effect on basal startle amplitude during no-stimulus trials [3]: no effect
occupancy [4]: > 90%
known mechanism of action with respect to glycine [5]: competitive
clearance in rat [6]: moderate to high clearance

Cn1cnc(S(=O)(=O)N2C[C@@H]3[C@H](C2)[C@@]3(CNC(=O)c2c(Cl)cccc2Cl)CC2CC2)c1 [Compound 12c]
mechanism of inhibition with respect to glycine (Eadie-Hoffstee plot) ([1]; [14C]-glycine transport, 40 nM 12c): competitive

Cn1cnc(S(=O)(=O)N2C[C@@H]3[C@H](C2)[C@@]3(CNC(=O)c2ccccc2C(F)(F)F)CC2CC2)c1 [Compound 12d]
IC50 [7]: > 30 µM
IC50 [8]: 14.9 µM
effect on basal startle amplitude during no-stimulus trials [3]: no effect
inhibition against any target in the panel [9]: ≤ 50%
stability in rat plasma [10]: stable
predicted hepatic clearance ClHEP [11]: 43.0 mL/min/kg
predicted hepatic clearance ClHEP [12]: 17.7 mL/min/kg
fraction unbound [13]: 0.068
brain AUC0-6hr ([14]; 10 mg/kg p.o. in 0.5% methocellulose): 0.956 µM·h
brain AUC0-6hr ([14]; 10 mg/kg s.c. in 10% tween 80): 0.431 µM·h

CCS(=O)(=O)N1C[C@@H]2[C@H](C1)[C@@]2(CNC(=O)c1ccc(Cl)cc1Cl)CC1CC1 [Compound 4a]
loss in GlyT1 potency relative to piperidine analog [1]: 50 fold

Cn1cnc(S(=O)(=O)N2C[C@@H]3[C@H](C2)[C@@]3(CNC(=O)c2ccc(Cl)cc2Cl)c2ccccn2)c1 [Compound 10]
IC50 [15]: > 30 µM

Cn1cnc(S(=O)(=O)N2C[C@@H]3[C@H](C2)[C@@]3(CNC(=O)c2ccccc2C(F)(F)F)c2ccccn2)c1 [Compound 11]
IC50 [15]: > 30 µM

CCCS(=O)(=O)N1CCC(c2ccccc2)([C@H](C)NC(=O)c2ccc(Cl)cc2Cl)CC1 [Compound 1]
known mechanism of action with respect to glycine [5]: competitive
